This note sets out measurements from US20070053841A1, “USE OF 1,1,1,2-TETRAFLUOROETHANE FOR MEASURING LUNG FUNCTION, ESPECIALLY FOR DETERMINING THE FUNCTIONAL RESIDUAL CAPACITY (FRC) OF THE LUNGS” (Drager Medical AG & Co. KG, priority 2005, published 2007).

A short description of the data set: blood-gas partition coefficient L (solubility of the gas in the blood). It is filed as physicochemical. As to conditions: gas 1 = R 134a, gas 2 = R 227; equilibrium between gas dissolved in blood and gas phase. How it is done: The solubility of gases in the blood can be described by the blood-gas partition coefficient L, which describes the ratio of the volume percentages between gas dissolved in the blood and gas present in the gas phase. The prerequisite for this is the presence of an equilibrium with identical partial pressures of the gas in the phase in which it is dissolved in the blood and in the gas phase. Lowest possible solubility of the tracer gas in the blood is desirable for the lung function diagnostic tests and especially for the determination of the FRC, because what we wish to ultimately determine is the lung volume rather than the quantity of blood in the body. By using at least two gases with different solubilities in blood, the FRC measurement can be corrected with respect to the solubility in blood. The subscripts 1 and 2 below designate the two gases, which may stand, e.g., for R 134a and R 227. It can be assumed below, without restricting the generality, that L1>L2, so that the FRC measured with gas 1 (for example, R 134a) will be greater than that determined with gas 2 (for example, R 227). The blood volume can be determined from the difference of the FRC values: [formula] […] In case of R 134a and R 227, the coefficient L1/L2 is approx. 4, so that the measured difference in FRC is divided by 3.

SMILES strings stand for the structures.

Consider `FCC(F)(F)F` [R 134a, 1,1,1,2-tetrafluoroethane], for which the “coefficient L1/L2 (ratio of blood-gas partition coefficients)” value is “approx. 4”.
